Where “and” joins values, the source holds several entries; their conditions need not be identical. Equal values may be shown once.
Tested on: E. coli Lig-C-HiBiT (DNA ligase)
Test: SDR assay (aqueous ligand dispense), E. coli Lig-C-HiBiT
Settings: for SDR assay data: 1 nM E. coli Lig-C-HiBiT; for SDR assay data / SDR response: Log [ATP]; for SDR response: replicates
[1] = E. coli Lig-C-HiBiT (1.0 nM), ligand 100 µM

For `Nc1ncnc2c1ncn2[C@@H]1O[C@H](COP(=O)(O)OP(=O)(O)OP(=O)(O)O)[C@@H](O)[C@H]1O` [ATP], the SDR assay data (M -3.15) was 6.4 and 7.5 and 12.8, the SDR assay data (M -3.75) was 7.0 and 9.1 and the SDR assay data (M -4.05) was 6.9 and 5.8 and 9.6. For the same compound, the SDR assay data (M -6.76) was 5.3 and 6.4 and 8.6, the “SDR assay statistics Ave RLU” value [1] was 2214.0 RLU and the “SDR assay statistics S:B” value [1] was 1.1. The max resp (E. coli Lig-C-HiBiT, maximum response) was 7.8, the SDR response (M -2.85) was 4.8 and 10.7 and the SDR response (M -3.15) was 6.4 and 12.8. The SDR response (M -3.45) was 4.5 and 9.6, the SDR response (M -3.75) was 7.0 and 9.1 and the SDR response (M -4.05) was 6.9 and 5.8 and 9.6. For the same compound, the SDR response (M -4.35) was 9.4 and 4.6 and 6.2, the SDR response (M -4.65) was 10.2 and 2.5 and the SDR response (M -4.95) was 10.5 and 2.6. For the same compound, the SDR response (M -5.25) was 4.4 and 2.6 and 13.4, the SDR response (M -5.55) was 1.7 and 7.1 and the SDR response (M -5.86) was 5.9. For the same compound, the SDR response (M -6.16) was 9.8 and 1.1 and 5.3, the SDR response (M -6.46) was 6.3 and 0.236 and 4.6 and the SDR response (M -6.76) was 5.3 and 6.4.
